# Data: publication PMC3740683, “ML212: A small-molecule probe for investigating fluconazole resistance mechanisms in Candida albicans” (Beilstein Journal of Organic Chemistry, 2013)
# Legend:
# [1] = Secondary assay 3: fibroblast toxicity; format: cell-based; conditions: mouse, NIH-3T3 fibroblasts, murine 3T3 fibroblasts
# Procedure: 11) Read relative fluorescence intensity (RFU) of wells on a standard plate reader as […]
# measure of relative fungal growth. EnVision (Perkin Elmer) plate reader settings: […]
# Secondary assay 3: fibroblast toxicity
# Clear, flat-bottom, black, 384-well plates (Corning Catalog no. 3712BC Lot no.
# 35808016); geldanamycin (AG Scientific Catalog no. G-1047) 15 mM stock solution in […]
# DMSO; fluconazole (Sequoia Research Ltd.) 2 mg/mL stock solution in PBS; Alamar […]
# Blue (AG Scientific Catalog no. DAL1100, Lot no. 151016SA); PBS w/o calcium and […]
# magnesium (Cellgro Catalog no. 21-040-CV)
# Optimem medium (Invitrogen Catalog no. 31985-070; Lot no. 548536); 2.5% (v/v) fetal […]
# bovine serum (Hyclone Catalog no.30071.03; Lot no. ARF26748); 1% (v/v) Pen/Strep […]
# Test strain: NIH-3T3 mammalian fibroblasts (ATCC CRL No. 1658) […]
# 1) Plate cells in 384-well plates at 6,000 cells/well in 20 µL assay medium.
# 2) Incubate plates overnight at 37 °C under 5% CO2.
# 1) After overnight culture, pin compounds into wells at 100 nL/well using the CyBio […]
# CyBi-Well pinning instrument.
# 2) After pinning compounds, add 20 µL of assay medium supplemented with […]
# fluconazole to each well. […]
# 6) Read the relative fluorescence intensity (RFU) of wells on a standard plate reader as a measure of relative cell growth. EnVision (Perkin Elmer) plate reader […]
# setup: Ex 544 nm, Em […], bandwidth12 nm, top read.
# [2] = Plasma stability, human plasma; format: in vitro ADME; conditions: 5 h incubation
# C. albicans CaCi-2 = assay: Primary screen and dose-response retest: CaCi-2 with 8 µg/mL fluconazole (Alamar Blue growth); format: cell-based, Candida albicans; conditions: Candida albicans, CACI2; 37 °C, 48 hours, with test compound and 8 µg/mL (26 µM) fluconazole; average of at least three independent experiments in duplicate; inactive = negligible activity at concentrations below 26 µM
# Procedure: All of the compounds prepared above were evaluated for their ability to chemosensitize the C. albicans test strains CaCi-2 and CaCi-8 towards fluconazole. […] The DMSO/fluconazole combination served as an internal control.
# Protocols for cellular assays
# Primary screen and dose-response retest: CaCi-2 with 8 µg/mL fluconazole […]
# Clear, flat-bottom, black, 384-well plates (Corning Catalog no. 3712BC; Lot no. […]
# DMSO; Fluconazole (Sequoia Research Products Ltd) 2 mg/mL stock solution in PBS; […]
# (AG Scientific Catalog no. DAL 1100; Lot no.151016SA); PBS without calcium and magnesium (Cellgro Catalog no. 21-040-CV)
# Synthetic defined growth medium
# RPMI 1640 medium, (powder without sodium bicarbonate; Invitrogen Catalog no. […]
# no. 028KO760); Glucose 40% (w/v) in water (Sigma Catalog no. G-5400); MOPS buffer […]
# 1) Prepare 1× RPMI medium by dissolving 10.4 grams powdered medium in 800 […]
# 2) Add 34.52 g MOPS. While stirring, adjust pH to 7.0 with 10 N NaOH.
# 3) Add 10 mL uridine solution, 50 mL glucose solution, adjust final volume to 1000 […]
# Test Strain: C. albicans CaCi-2
# 1) Inoculate 500 µL of strain from cryopreserved stock into a 250 mL shaker flask containing 30 mL growth medium. Shake at 30 °C overnight.
# 2) Read OD 600 of 1 mL fungal culture in a cuvette using a standard optical density reader (Eppendorf BioPhotometer Plus), with growth medium as a background […]
# 3) Dilute to desired volume of fungal inoculums according to the following formula:
# (1/OD measured) × (desired final volume of inoculum) × 0.3 = volume of fungal culture (µL) to add to desired volume of growth medium. When added to media in wells, this yields a calculated starting OD of the fungal inoculum of 0.00015.
# 1) Add fluconazole stock solution to fungal inoculum to achieve a final concentration […]
# 2) Add Pen/Strep at 0.1 mL per 10 mL media (1% v/v).
# 3) Use a Thermo Combi nL to dispense 20 µL/well of assay media into all wells.
# 4) Pin 25 nL test compound from compound plates into assay plates using CyBi- […]
# 5) Dispense 20 µL/well of culture into the assay media in all wells.
# 6) Incubate plates in a humidified (90% humidity) Liconic incubator at 37 °C without […]
# 7) Dilute Alamar Blue Reagent 1:40 in Ca/Mg-free PBS.
# 8) To all plates, add 5 µL/well of the diluted Alamar to a final dilution factor of 1:200.
# 9) Incubate the plates for an additional 2 hours.
# 10) Read the relative fluorescence intensity (RFU) of wells on a standard plate reader as a measure of relative fungal growth. EnVision (Perkin Elmer) plate reader setup: Ex 544 nm, Em 590 nm, bandwidth 12 nm, top read. […]
smiles,measurement,setting,value
COC(=O)Cn1nc(-c2cccc(OC)c2)c2ccccc21 [Compound 36],IC50 at 48 h,[1],> 26 µM
same,remaining after incubation in plasma,[2],< 10%
same,IC50,C. albicans CaCi-2,0.7 ± 0.3 µM
